Experiments:
[1] = system: PM10D-induced airway inflammation model; experiment: FACS analysis of immune cells in bronchoalveolar lavage fluid (BALF); assay type: in vivo, Balb/c mice; conditions: BAL, ATG-E1 4×10^9 CFU/mouse, Dexa 3 mg/kg, orally daily for 10 days
Description: (§1) There were 8 Balb/c mice (male, 8 weeks old) per group, and all groups except a normal group were injected with a fine dust mixture using the Intra-Nazal-Trachea (INT) injection method described in literatures. The fine dust mixture contained diesel exhaust particles (DEP) (PM10 (Sigma)) and 1% (final concentration) of alum. The fine dust mixture was directly injected into the airways and noses of the experimental animals on days 4, 7, and 10 of the experiment. (Lim et al., Free Radic Biol Med. 25 (6), 635-644 (1998), Shin et al., Korean J. Mediclinal Crop Sci 27 (3), 218-231 (2019)). […] An autopsy was performed on the 11th day after the start of the experiment, and bronchoalveloar lavage fluid (BALF) and lung tissue were collected.
Immune cell profiles (lymphocytes, neutrophils, macrophages, T cell subtypes, Gr-1^+CD11b^+, etc.) were measured by fluorescence-activated cell sorting (FACS) analysis of bronchoalveolar lavage fluid isolated from each individual after the end of the experiment in Example 3-1.

[2] = system: PM10D-induced airway inflammation model; experiment: FACS analysis of immune cells in cells isolated from lung tissue; assay type: in vivo, Balb/c mice; conditions: ATG-E1 4×10^9 CFU/mouse, Dexa 3 mg/kg, orally daily for 10 days
Description: as §1
Immune cell profiles (lymphocytes, neutrophils, macrophages, T cell subtypes, Gr-1^+CD11b^+, etc.) were measured by fluorescence-activated cell sorting (FACS) analysis of […] lung tissue of each individual after the end of the experiment in Example 3-1.

With `C[C@@H]1C[C@H]2[C@@H]3CCC4=CC(=O)C=C[C@]4(C)[C@@]3(F)[C@@H](O)C[C@]2(C)[C@@]1(O)C(=O)CO` [Dexa, dexamethasone] the “CD4^+ (Absolute No.)” value ([1]; NC 0.07, CTL 5.26) was 3.43 ± 0.58 ×10^7 cells, the “Lymphocytes (Absolute No.)” value ([1]; NC 0.08, CTL 0.82) was 0.96 ± 0.53 ×10^7 cells and the “CD4^+CD69^+ (Absolute No.)” value ([1]; NC 0.08, CTL 1.73) was 1.40 ± 0.19 ×10^7 cells. For the same compound, the “CD8^+ (Absolute No.)” value ([1]; NC 0.14, CTL 3.72) was 2.80 ± 0.71 ×10^7 cells, the “Gr-1^+CD11b^+ (Absolute No.)” value ([1]; NC 0.34, CTL 1.62) was 1.38 ± 0.12 ×10^7 cells and the “CD62L^−CD44^+high (Absolute No.)” value ([1]; NC 0.99, CTL 6.40) was 5.95 ± 0.85 ×10^7 cells. The “Macrophage (Absolute No.)” value ([1]; NC 1.18, CTL 1.82) was 2.29 ± 0.28 ×10^7 cells, the “Neutrophils (Absolute No.)” value ([1]; NC 3.59, CTL 15.09) was 15.01 ± 2.14 ×10^7 cells and the “Gr-1^+CD11b^+ (Absolute No.)” value ([2]; NC 0.17, CTL 1.07) was 0.60 ± 0.08 ×10^7cells. For the same compound, the “CD4^+CD69^+ (Absolute No.)” value ([2]; NC 0.20, CTL 3.01) was 0.29 ± 0.07 ×10^7 cells, the “CD21/35 + B220^+ (Absolute No.)” value ([2]; NC 0.27, CTL 3.40) was 1.35 ± 0.32 ×10^7 cells and the “CD62L^−CD44^+high (Absolute No.)” value ([2]; NC 0.35, CTL 2.53) was 1.27 ± 0.15 ×10^7 cells. The “CD8^+ (Absolute No.)” value ([2]; NC 1.11, CTL 3.46) was 1.92 ± 0.18 ×10^7 cells, the “Eosinophils (Absolute No.)” value ([2]; NC 1.56, CTL 6.87) was 3.41 ± 1.06 ×10^7 cells and the “CD4^+ (Absolute No.)” value ([2]; NC 1.97, CTL 6.13) was 3.32 ± 0.42 ×10^7cells. The “Lymphocytes (Absolute No.)” value ([2]; NC 2.60, CTL 3.17) was 9.34 ± 6.56 ×10^7 cells and the “Neutrophils (Absolute No.)” value ([2]; NC 3.03, CTL 12.04) was 3.41 ± 0.83 ×10^7 cells.
